For 15 compounds, TGI results are on record in PubChem BioAssay (NCI).

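Test compounds were applied to cells in 96-well plates for 48 hours at 5 doses. The concentration for full growth arrest is given as TGI.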 Some results are limits rather than exact numbers.

What all share (experiment): NCI-60 cell line screen, 48 h
In experiment [1] the test system is SF-539 CNS.
Experiment [2] deals with OVCAR-3 ovarian.
Experiment [3] has as its system SNB-19 CNS.
In experiment [4] the test system is SF-268 CNS.
Experiment [5] deals with RPMI-8226 leukemia.
Experiment [6] deals with NCI/ADR-RES ovarian.
Experiment [7] has as its system MALME-3M melanoma.
The test system of experiment [8] is CAKI-1 renal.
The subject of experiment [9] is SW-620 colon.
Experiment [10] deals with OVCAR-5 ovarian.
Experiment [11] has as its system OVCAR-4 ovarian.
The subject of experiment [12] is PC-3 prostate.
The subject of experiment [13] is HS 578T breast.
Experiment [14] has as its system LOX IMVI melanoma.
Experiment [15] has as its system A549 NSCLC.
The test system of experiment [16] is SK-MEL-2 melanoma.
Experiment [17] concerns BT-549 breast.
Experiment [18] concerns DU-145 prostate.
The test system of experiment [19] is T-47D breast.
Experiment [20] deals with SK-MEL-5 melanoma.

On to `COc1ccc(NCC(=O)Nn2c(C)nc3ccc(S(=O)(=O)Nc4ccc(OC)cc4)cc3c2=O)cc1`, for which the TGI in experiment [1], in experiment [2], in experiment [3], in experiment [4], in experiment [5] and in experiment [6] was above 100 µM in each case. Also, the TGI in [7], in experiment [8], in [9], in [10], in experiment [11] and in [12] was above 100 µM each time. Besides, the TGI in [13], in [14], in [15], in experiment [16], in experiment [17] and in [18] was above 100 µM in each case.

As to `CN(/N=C/c1cccs1)c1ccc([N+](=O)[O-])cc1[N+](=O)[O-]`, the TGI in experiment [1], in experiment [2], in [3], in [19], in experiment [4] and in experiment [5] was above 100 µM each time. Moreover, the TGI in [6], in experiment [8], in [9], in experiment [20], in [11] and in experiment [12] was above 100 µM in each case. In addition, the TGI in [13], in [15], in [17] and in experiment [18] was above 100 µM each time.

In the case of `Nc1ccc(S(=O)(=O)c2ccc(NC(=O)c3cccnc3)cc2)cc1`, the TGI in experiment [2], in [3], in experiment [19], in experiment [4], in experiment [5] and in [6] was above 100 µM each time. Further, the TGI in experiment [7], in experiment [8], in [9], in [20], in experiment [10] and in experiment [11] was above 100 µM in each case. In addition, the TGI in experiment [12], in [13], in experiment [14], in experiment [15], in experiment [17] and in [18] was above 100 µM in each case.

On to `O=C(CC(C(=O)c1cccs1)c1ccsc1)c1ccsc1` (stereo not drawn), for which the TGI in experiment [1] is 94.8 µM; in [2] it was above 100 µM; in experiment [3], above 100 µM; in experiment [19] it was above 100 µM; in experiment [4], above 100 µM; in experiment [5] it was above 100 µM. The TGI was 63.6 µM in experiment [6]; above 100 µM in experiment [7]; above 100 µM in experiment [9]; 64 µM in experiment [20]; above 100 µM in experiment [10]; above 100 µM in [11]. Moreover, the TGI in experiment [12] was above 100 µM; in experiment [13] it was 71.2 µM; in experiment [14] it was above 100 µM; in [15] it was above 100 µM; in experiment [17] it was above 100 µM; in experiment [18], above 100 µM.

Consider `Cc1c2cnccc2nc2[nH]c3ccncc3c12`, for which the TGI in [1] was above 100 µM; in experiment [2], 42.4 µM; in experiment [3], above 100 µM; in experiment [19], above 100 µM; in experiment [4] it was 7.62 µM; in experiment [5], 19.5 µM. In addition, the TGI in experiment [7] was 14.1 µM; in [8], 24.9 µM; in experiment [9] it was 65.8 µM; in experiment [20], 20.6 µM; in experiment [10], 40.5 µM; in [11] it was above 100 µM. Also, the TGI in [12] is above 100 µM; in [13] it was above 100 µM; in [14] it was 11.9 µM; in experiment [15] it was above 100 µM; in [16] it was 27.6 µM; in [17], 63.8 µM. Besides, in [18], the TGI was above 100 µM.

As for `CSCC[C@H]1C(=O)N=C(N)N1C(=O)OCc1ccccc1`, the TGI in [2], in experiment [3], in experiment [4], in [5], in [6] and in experiment [7] was above 100 µM each time. The TGI is 44.3 µM in experiment [8]; 33.9 µM in [9]; above 100 µM in experiment [20]; above 100 µM in [10]; above 100 µM in experiment [11]; above 100 µM in experiment [12]. The TGI in experiment [13] is 49.9 µM; in experiment [14] it was above 100 µM; in [16], above 100 µM; in experiment [17], 60.9 µM; in experiment [18] it was above 100 µM.

For `CCOC(=O)COc1ccc(/C=C/C(=O)c2ccc(OC)cc2)cc1`, the TGI in experiment [1] was 41.5 µM; in experiment [2], above 100 µM; in [3], above 100 µM; in experiment [19] it was above 100 µM; in experiment [4], 82.7 µM; in experiment [5] it was above 100 µM. Also, the TGI was above 100 µM in experiment [6]; 92.7 µM in experiment [7]; 61.6 µM in experiment [9]; above 100 µM in experiment [10]; 62.5 µM in experiment [12]; above 100 µM in experiment [13]. Besides, the TGI in experiment [14] was 39.4 µM; in [15], above 100 µM; in [16] it was 85.8 µM; in experiment [17], above 100 µM; in experiment [18], 76.8 µM.

On to `N#Cc1c2c([nH]c(=O)c1C#N)CCCC2`, for which the TGI in [1], in experiment [2], in experiment [3], in experiment [19], in [4] and in experiment [6] was above 100 µM throughout. Besides, the TGI in experiment [7], in experiment [8], in experiment [9], in experiment [20], in experiment [10] and in [12] was above 100 µM throughout. In addition, the TGI in experiment [13], in experiment [14], in experiment [15], in [16], in experiment [17] and in [18] was above 100 µM each time.

For the compound `O=C1N[C@@H]([C@H](CCCCCO)OC(=O)c2ccccc2)CO1`, the TGI in experiment [1], in experiment [2], in experiment [3], in experiment [19], in experiment [5] and in experiment [6] was above 100 µM each time. Besides, the TGI in experiment [8], in experiment [9], in experiment [20], in experiment [10], in experiment [11] and in experiment [12] was above 100 µM in each case. The TGI in experiment [13], in experiment [14], in [15], in [16], in experiment [17] and in experiment [18] was above 100 µM in each case.

Turning to `O=C(NCCNCCO)N/N=C/c1ccc([N+](=O)[O-])cc1`, the TGI in experiment [1], in [2], in [3], in [19], in [4] and in experiment [6] was above 100 µM throughout. Besides, the TGI in experiment [7], in [8], in [9], in experiment [20], in experiment [10] and in [12] was above 100 µM in each case. For the same compound, the TGI in experiment [13], in [15], in [16], in experiment [17] and in [18] was above 100 µM each time.

Consider `O=C1CC(CC(OCc2ccccc2)C(COCc2ccccc2)OCc2ccccc2)CC(=O)N1` (stereo not drawn), for which the TGI in [1] is above 100 µM; in [2] it was above 100 µM; in experiment [19] it was 94.5 µM; in [4], above 100 µM; in experiment [5] it was above 100 µM; in [6] it was 97.9 µM. The TGI in [7] was 45.8 µM; in experiment [8] it was 76.3 µM; in [9], above 100 µM; in experiment [20] it was 30.9 µM; in [10], above 100 µM; in [11] it was above 100 µM. Also, the TGI in [12] was 63.9 µM; in [13], above 100 µM; in experiment [14] it was above 100 µM; in experiment [15] it was above 100 µM; in [17] it was 49.8 µM; in experiment [18] it was above 100 µM.

As to `Cc1cc(C)c(C)c(-n2[nH]c(=O)n(C)c2=O)c1C`, the TGI in [1], in experiment [2], in [3], in [19], in [4] and in experiment [5] was above 100 µM throughout. The TGI in experiment [6], in experiment [8], in [9], in experiment [20], in experiment [10] and in experiment [12] was above 100 µM throughout. Besides, the TGI in experiment [13], in experiment [14], in experiment [15], in experiment [16], in experiment [17] and in [18] was above 100 µM in each case.

With `O=[N+]([O-])c1ccc(N=NN2CCCC2)cc1`, the TGI in experiment [1], in experiment [2], in experiment [3], in experiment [19], in [4] and in experiment [5] was above 100 µM throughout. The TGI in [6], in experiment [8], in experiment [9], in experiment [20], in [10] and in experiment [11] was above 100 µM throughout. Also, the TGI in experiment [12], in experiment [13], in experiment [14], in experiment [16], in [17] and in experiment [18] was above 100 µM each time.

For `O=Cc1cc2c(o1)C(=O)c1ccccc1C2=O`, the TGI was 2.25 µM in [1]; 2.11 µM in [2]; 1.62 µM in [3]; 3.94 µM in experiment [19]; 4.13 µM in experiment [4]; above 100 µM in experiment [5]. In addition, the TGI in [6] came to 5.54 µM; in experiment [7], 0.37 µM; in [8], 9.54 µM; in experiment [9], 1.02 µM; in [20] it was 0.698 µM; in experiment [10], 3.25 µM. The TGI in experiment [11] stood at 2.26 µM; in [12], 11.6 µM; in experiment [14], 0.679 µM; in [15] it was 3.02 µM; in [16] it was 4.2 µM; in experiment [17], 2.12 µM. For the same compound, the TGI in experiment [18] stood at 0.427 µM.

In the case of `CC(=O)Nc1ccc(N2C(=O)/C(=C\c3cccc(Oc4ccccc4)c3)SC2c2ccccc2)cc1` (stereo not drawn), the TGI is 33.4 µM in [1]; above 100 µM in [2]; 48.5 µM in [3]; above 100 µM in experiment [19]; above 100 µM in experiment [4]; 58.3 µM in experiment [5]. Further, the TGI is above 100 µM in experiment [6]; 62.4 µM in [7]; above 100 µM in experiment [8]; above 100 µM in experiment [9]; 68.6 µM in experiment [20]; above 100 µM in experiment [10]. The TGI is above 100 µM in experiment [11]; 66.3 µM in [13]; 34.3 µM in [14]; above 100 µM in experiment [15]; above 100 µM in [16]; above 100 µM in [17]. The same compound registered a TGI in experiment [18] above 100 µM.
